PubChem BioAssay (NCI)
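A five-concentration, 48-hour dose response in 96-well plates underlies each endpoint, interpolated linearly between surrounding concentrations. TGI marks complete inhibition of growth.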

How the values were obtained:
Experiment in all cases: DTP human tumour cell line panel, 48 h
M14 melanoma = tested on: M14 melanoma
KM12 colon = tested on: KM12 colon
RPMI-8226 leukemia = tested on: RPMI-8226 leukemia
U251 CNS = tested on: U251 CNS
UACC-257 melanoma = tested on: UACC-257 melanoma
OVCAR-3 ovarian = tested on: OVCAR-3 ovarian
786-0 renal = tested on: 786-0 renal
SK-OV-3 ovarian = tested on: SK-OV-3 ovarian
SK-MEL-2 melanoma = tested on: SK-MEL-2 melanoma
HT29 colon = tested on: HT29 colon
SF-295 CNS = tested on: SF-295 CNS
OVCAR-8 ovarian = tested on: OVCAR-8 ovarian
K-562 leukemia = tested on: K-562 leukemia
LXFL 529 NSCLC = tested on: LXFL 529 NSCLC
HCT-116 colon = tested on: HCT-116 colon
SF-539 CNS = tested on: SF-539 CNS
EKVX NSCLC = tested on: EKVX NSCLC
SW-620 colon = tested on: SW-620 colon
SN12C renal = tested on: SN12C renal
SK-MEL-5 melanoma = tested on: SK-MEL-5 melanoma
NCI-H522 lung = tested on: NCI-H522 lung
CAKI-1 renal = tested on: CAKI-1 renal
A549 NSCLC = tested on: A549 NSCLC
NCI-H460 lung = tested on: NCI-H460 lung
SNB-19 CNS = tested on: SNB-19 CNS
DLD-1 colon = tested on: DLD-1 colon
KM20L2 colon = tested on: KM20L2 colon
DMS 273 small cell lung = tested on: DMS 273 small cell lung
TK-10 renal = tested on: TK-10 renal
ACHN renal = tested on: ACHN renal
SNB-75 CNS = tested on: SNB-75 CNS
OVCAR-5 ovarian = tested on: OVCAR-5 ovarian
SR leukemia = tested on: SR leukemia
SF-268 CNS = tested on: SF-268 CNS
CCRF-CEM leukemia = tested on: CCRF-CEM leukemia
UACC-62 melanoma = tested on: UACC-62 melanoma
SNB-78 CNS = tested on: SNB-78 CNS
COLO 205 colon = tested on: COLO 205 colon
M19-MEL melanoma = tested on: M19-MEL melanoma
UO-31 renal = tested on: UO-31 renal
HCC-2998 colon = tested on: HCC-2998 colon
HCT-15 colon = tested on: HCT-15 colon
HOP-92 NSCLC = tested on: HOP-92 NSCLC
NCI-H23 lung = tested on: NCI-H23 lung
LOX IMVI melanoma = tested on: LOX IMVI melanoma
HOP-62 NSCLC = tested on: HOP-62 NSCLC
HL-60(TB) leukemia = tested on: HL-60(TB) leukemia
SK-MEL-28 melanoma = tested on: SK-MEL-28 melanoma
MALME-3M melanoma = tested on: MALME-3M melanoma
HOP-18 NSCLC = tested on: HOP-18 NSCLC
IGROV1 ovarian = tested on: IGROV1 ovarian
MOLT-4 leukemia = tested on: MOLT-4 leukemia
PC-3 prostate = tested on: PC-3 prostate
DU-145 prostate = tested on: DU-145 prostate
NCI/ADR-RES ovarian = tested on: NCI/ADR-RES ovarian
MDA-MB-435 = tested on: MDA-MB-435
HS 578T breast = tested on: HS 578T breast
A498 renal = tested on: A498 renal
MDA-MB-231 breast = tested on: MDA-MB-231 breast
MDA-N = tested on: MDA-N
NCI-H226 lung = tested on: NCI-H226 lung
MCF7 breast = tested on: MCF7 breast
BT-549 breast = tested on: BT-549 breast
RXF 393 renal = tested on: RXF 393 renal
T-47D breast = tested on: T-47D breast
OVCAR-4 ovarian = tested on: OVCAR-4 ovarian

## C1=C2/CC[C@H](Sc3ccccc3)[C@H]2C2(CCCCC/1)OCCO2
M14 melanoma
  TGI: 93 µM
KM12 colon
  TGI: > 100 µM
RPMI-8226 leukemia
  TGI: 83.1 µM
U251 CNS
  TGI: 63.1 µM
UACC-257 melanoma
  TGI: 55 µM
OVCAR-3 ovarian
  TGI: 81.7 µM
786-0 renal
  TGI: > 100 µM
SK-OV-3 ovarian
  TGI: > 100 µM
SK-MEL-2 melanoma
  TGI: 33.2 µM
HT29 colon
  TGI: > 100 µM
SF-295 CNS
  TGI: > 100 µM
OVCAR-8 ovarian
  TGI: > 100 µM
K-562 leukemia
  TGI: > 100 µM
LXFL 529 NSCLC
  TGI: > 100 µM
HCT-116 colon
  TGI: > 100 µM
SF-539 CNS
  TGI: > 100 µM
EKVX NSCLC
  TGI: 54.5 µM
SW-620 colon
  TGI: > 100 µM
SN12C renal
  TGI: > 100 µM
SK-MEL-5 melanoma
  TGI: 59.1 µM
NCI-H522 lung
  TGI: 39.6 µM
CAKI-1 renal
  TGI: 63 µM
A549 NSCLC
  TGI: > 100 µM
NCI-H460 lung
  TGI: > 100 µM
SNB-19 CNS
  TGI: > 100 µM
DLD-1 colon
  TGI: > 100 µM
KM20L2 colon
  TGI: 45.3 µM
DMS 273 small cell lung
  TGI: > 100 µM
TK-10 renal
  TGI: > 100 µM
ACHN renal
  TGI: > 100 µM
SNB-75 CNS
  TGI: > 100 µM
OVCAR-5 ovarian
  TGI: 79.6 µM
SR leukemia
  TGI: > 100 µM
SF-268 CNS
  TGI: > 100 µM
CCRF-CEM leukemia
  TGI: 66.4 µM
UACC-62 melanoma
  TGI: 62.4 µM
SNB-78 CNS
  TGI: > 100 µM
COLO 205 colon
  TGI: 38.2 µM
M19-MEL melanoma
  TGI: 67 µM
UO-31 renal
  TGI: > 100 µM
HCC-2998 colon
  TGI: 41.3 µM
HCT-15 colon
  TGI: > 100 µM
HOP-92 NSCLC
  TGI: 59.1 µM
NCI-H23 lung
  TGI: > 100 µM
LOX IMVI melanoma
  TGI: 39.5 µM
HOP-62 NSCLC
  TGI: > 100 µM
HL-60(TB) leukemia
  TGI: 65.7 µM
SK-MEL-28 melanoma
  TGI: > 100 µM
MALME-3M melanoma
  TGI: 73.8 µM
HOP-18 NSCLC
  TGI: > 100 µM
IGROV1 ovarian
  TGI: > 100 µM

## CC(C)C(OC(=O)c1ccc(NCc2cc(O)ccc2O)cc1)C(C)C
M14 melanoma
  TGI: 6.93 µM
KM12 colon
  TGI: 11.1 µM
RPMI-8226 leukemia
  TGI: 0.931 µM
U251 CNS
  TGI: 2.85 µM
UACC-257 melanoma
  TGI: 3.83 µM
OVCAR-3 ovarian
  TGI: 4.37 µM
786-0 renal
  TGI: 2.42 µM
MOLT-4 leukemia
  TGI: 0.956 µM
SK-MEL-2 melanoma
  TGI: 6.68 µM
PC-3 prostate
  TGI: 3.96 µM
HT29 colon
  TGI: 16.6 µM
SF-295 CNS
  TGI: 15.4 µM
OVCAR-8 ovarian
  TGI: 3.77 µM
K-562 leukemia
  TGI: 4.12 µM
HCT-116 colon
  TGI: 14 µM
SF-539 CNS
  TGI: 2.47 µM
EKVX NSCLC
  TGI: 5.32 µM
SW-620 colon
  TGI: 7.95 µM
SN12C renal
  TGI: 11.9 µM
SK-MEL-5 melanoma
  TGI: 7.45 µM
NCI-H522 lung
  TGI: 0.391 µM
CAKI-1 renal
  TGI: 0.701 µM
A549 NSCLC
  TGI: 20.7 µM
DU-145 prostate
  TGI: 20.9 µM
NCI-H460 lung
  TGI: 14.7 µM
SNB-19 CNS
  TGI: 7.06 µM
NCI/ADR-RES ovarian
  TGI: 6.14 µM
MDA-MB-435
  TGI: 5.59 µM
HS 578T breast
  TGI: 8.09 µM
TK-10 renal
  TGI: 3.62 µM
ACHN renal
  TGI: 2.33 µM
A498 renal
  TGI: 9.58 µM
SNB-75 CNS
  TGI: 3.7 µM
MDA-MB-231 breast
  TGI: 9.15 µM
OVCAR-5 ovarian
  TGI: 6.16 µM
MDA-N
  TGI: 12.9 µM
SR leukemia
  TGI: 2.43 µM
SF-268 CNS
  TGI: 5.3 µM
CCRF-CEM leukemia
  TGI: 0.589 µM
UACC-62 melanoma
  TGI: 3.27 µM
COLO 205 colon
  TGI: 5.56 µM
UO-31 renal
  TGI: 2.42 µM
HCC-2998 colon
  TGI: 10.2 µM
NCI-H226 lung
  TGI: 5.47 µM
MCF7 breast
  TGI: 16.4 µM
HCT-15 colon
  TGI: 1.77 µM
HOP-92 NSCLC
  TGI: 1.36 µM
NCI-H23 lung
  TGI: 6.56 µM
BT-549 breast
  TGI: 2.23 µM
LOX IMVI melanoma
  TGI: 2.31 µM
HOP-62 NSCLC
  TGI: 21.7 µM
RXF 393 renal
  TGI: 1.65 µM
T-47D breast
  TGI: 3.4 µM
HL-60(TB) leukemia
  TGI: 0.484 µM
SK-MEL-28 melanoma
  TGI: 3.23 µM
MALME-3M melanoma
  TGI: 3.3 µM
OVCAR-4 ovarian
  TGI: 4.33 µM
IGROV1 ovarian
  TGI: 2.35 µM

## CC#CC(=O)SCCNC(=O)CC
M14 melanoma
  TGI: > 10 µM
KM12 colon
  TGI: > 10 µM
RPMI-8226 leukemia
  TGI: > 10 µM
U251 CNS
  TGI: > 10 µM
UACC-257 melanoma
  TGI: > 10 µM
OVCAR-3 ovarian
  TGI: > 10 µM
786-0 renal
  TGI: > 10 µM
MOLT-4 leukemia
  TGI: > 8.86 µM
SK-OV-3 ovarian
  TGI: > 10 µM
SK-MEL-2 melanoma
  TGI: > 10 µM
PC-3 prostate
  TGI: > 10 µM
HT29 colon
  TGI: > 10 µM
SF-295 CNS
  TGI: > 10 µM
OVCAR-8 ovarian
  TGI: > 10 µM
K-562 leukemia
  TGI: > 10 µM
HCT-116 colon
  TGI: > 10 µM
SF-539 CNS
  TGI: > 10 µM
EKVX NSCLC
  TGI: > 10 µM
SW-620 colon
  TGI: > 10 µM
SN12C renal
  TGI: > 10 µM
SK-MEL-5 melanoma
  TGI: > 10 µM
NCI-H522 lung
  TGI: 3.14 µM
CAKI-1 renal
  TGI: > 10 µM
A549 NSCLC
  TGI: > 10 µM
DU-145 prostate
  TGI: > 10 µM
NCI-H460 lung
  TGI: > 10 µM
SNB-19 CNS
  TGI: > 10 µM
NCI/ADR-RES ovarian
  TGI: > 10 µM
MDA-MB-435
  TGI: > 10 µM
HS 578T breast
  TGI: > 10 µM
TK-10 renal
  TGI: > 10 µM
ACHN renal
  TGI: > 10 µM
A498 renal
  TGI: > 10 µM
SNB-75 CNS
  TGI: > 10 µM
MDA-MB-231 breast
  TGI: > 10 µM
OVCAR-5 ovarian
  TGI: > 10 µM
MDA-N
  TGI: > 10 µM
SR leukemia
  TGI: > 7.91 µM
SF-268 CNS
  TGI: > 10 µM
CCRF-CEM leukemia
  TGI: > 8.72 µM
UACC-62 melanoma
  TGI: > 10 µM
COLO 205 colon
  TGI: > 10 µM
UO-31 renal
  TGI: > 10 µM
HCC-2998 colon
  TGI: > 10 µM
NCI-H226 lung
  TGI: > 10 µM
MCF7 breast
  TGI: > 10 µM
HCT-15 colon
  TGI: > 10 µM
NCI-H23 lung
  TGI: > 10 µM
BT-549 breast
  TGI: > 10 µM
LOX IMVI melanoma
  TGI: > 10 µM
HOP-62 NSCLC
  TGI: > 10 µM
RXF 393 renal
  TGI: > 9.55 µM
T-47D breast
  TGI: > 10 µM
HL-60(TB) leukemia
  TGI: > 10 µM
SK-MEL-28 melanoma
  TGI: > 10 µM
MALME-3M melanoma
  TGI: > 10 µM
OVCAR-4 ovarian
  TGI: > 10 µM
IGROV1 ovarian
  TGI: > 10 µM
